Measured values: ChEMBL document CHEMBL3045835, “Comparative study of conventional and microwave-assisted synthesis of some Schiff bases and their potential as antimicrobial agents” (2012)
≈ marks a conversion by molar mass, not a printed value.

Assays:
Type in all cases: functional
Penicillium chrysogenum [1] = test: Antifungal activity against Penicillium chrysogenum MTCC 161 at 500 ug/ml after 18 hr by cup-plate method; details: MTCC 161, 18 h, read-out: DIZ
Penicillium chrysogenum [2] = test: Antifungal activity against Penicillium chrysogenum MTCC 161 at 1000 ug/ml after 18 hr by cup-plate method; details: MTCC 161, 18 h, read-out: DIZ
Bacillus pumilus [3] = test: Antibacterial activity against Bacillus pumilus MTCC 1456 at 1500 ug/ml after 18 hr by cup-plate method; details: MTCC 1456, 18 h, read-out: DIZ
Bacillus pumilus [4] = test: Antibacterial activity against Bacillus pumilus MTCC 1456 at 1000 ug/ml after 18 hr by cup-plate method; details: MTCC 1456, 18 h, read-out: DIZ
Bacillus subtilis [5] = test: Antibacterial activity against Bacillus subtilis MTCC 441 after 24 hr by broth dilution method; details: MTCC 441, 24 h
Escherichia coli [6] = test: Antibacterial activity against Escherichia coli MTCC 1573 at 1500 ug/ml after 18 hr by cup-plate method; details: MTCC 1573, 18 h, read-out: DIZ
Pseudomonas fluorescens [7] = test: Antibacterial activity against Pseudomonas fluorescens MTCC 2421 at 200 ug/ml after 18 hr by cup-plate method; details: MTCC 2421, 18 h, read-out: DIZ
Micrococcus luteus [8] = test: Antibacterial activity against Micrococcus luteus MTCC 1538 at 1500 ug/ml after 18 hr by cup-plate method; details: MTCC 1538, 18 h, read-out: DIZ
Escherichia coli [9] = test: Antibacterial activity against Escherichia coli MTCC 1573 after 24 hr by broth dilution method; details: MTCC 1573, 24 h
Pseudomonas fluorescens [10] = test: Antibacterial activity against Pseudomonas fluorescens MTCC 2421 at 100 ug/ml after 18 hr by cup-plate method; details: MTCC 2421, 18 h, read-out: DIZ
Aspergillus niger [11] = test: Antifungal activity against Aspergillus niger MTCC 2546 at 500 ug/ml after 18 hr by cup-plate method; details: MTCC 2546, 18 h, read-out: DIZ
Micrococcus luteus [12] = test: Antibacterial activity against Micrococcus luteus MTCC 1538 at 100 ug/ml after 18 hr by cup-plate method; details: MTCC 1538, 18 h, read-out: DIZ
Pseudomonas fluorescens [13] = test: Antibacterial activity against Pseudomonas fluorescens MTCC 2421 at 1000 ug/ml after 18 hr by cup-plate method; details: MTCC 2421, 18 h, read-out: DIZ
Pseudomonas aeruginosa [14] = test: Antibacterial activity against Pseudomonas aeruginosa MTCC 424 after 24 hr by broth dilution method; details: MTCC 424, 24 h
Micrococcus luteus [15] = test: Antibacterial activity against Micrococcus luteus MTCC 1538 after 24 hr by broth dilution method; details: MTCC 1538, 24 h
Bacillus subtilis [16] = test: Antibacterial activity against Bacillus subtilis MTCC 441 at 1500 ug/ml after 18 hr by cup plate method; details: MTCC 441, 18 h, read-out: DIZ
Escherichia coli [17] = test: Antibacterial activity against Escherichia coli MTCC 1573 at 1000 ug/ml after 18 hr by cup-plate method; details: MTCC 1573, 18 h, read-out: DIZ
Micrococcus luteus [18] = test: Antibacterial activity against Micrococcus luteus MTCC 1538 at 500 ug/ml after 18 hr by cup-plate method; details: MTCC 1538, 18 h, read-out: DIZ
Penicillium chrysogenum [19] = test: Antifungal activity against Penicillium chrysogenum MTCC 161 at 1500 ug/ml after 18 hr by cup-plate method; details: MTCC 161, 18 h, read-out: DIZ
Aspergillus niger [20] = test: Antifungal activity against Aspergillus niger MTCC 2546 at 1500 ug/ml after 18 hr by cup-plate method; details: MTCC 2546, 18 h, read-out: DIZ
Pseudomonas aeruginosa [21] = test: Antibacterial activity against Pseudomonas aeruginosa MTCC 424 at 1500 ug/ml after 18 hr by cup-plate method; details: MTCC 424, 18 h, read-out: DIZ
Bacillus pumilus [22] = test: Antibacterial activity against Bacillus pumilus MTCC 1456 after 24 hr by broth dilution method; details: MTCC 1456, 24 h
Staphylococcus aureus [23] = test: Antibacterial activity against Staphylococcus aureus MTCC 1430 at 1500 ug/ml after 18 hr by cup-plate method; details: MTCC 1430, 18 h, read-out: DIZ
Staphylococcus aureus [24] = test: Antibacterial activity against Staphylococcus aureus MTCC 1430 at 200 ug/ml after 18 hr by cup-plate method; details: MTCC 1430, 18 h, read-out: DIZ
Aspergillus niger [25] = test: Antifungal activity against Aspergillus niger MTCC 2546 after 24 hr by broth dilution method; details: MTCC 2546, 24 h
Staphylococcus aureus [26] = test: Antibacterial activity against Staphylococcus aureus MTCC 1430 at 1000 ug/ml after 18 hr by cup-plate method; details: MTCC 1430, 18 h, read-out: DIZ
Bacillus subtilis [27] = test: Antibacterial activity against Bacillus subtilis MTCC 441 at 1000 ug/ml after 18 hr by cup plate method; details: MTCC 441, 18 h, read-out: DIZ
Pseudomonas fluorescens [28] = test: Antibacterial activity against Pseudomonas fluorescens MTCC 2421 at 1500 ug/ml after 18 hr by cup-plate method; details: MTCC 2421, 18 h, read-out: DIZ
Micrococcus luteus [29] = test: Antibacterial activity against Micrococcus luteus MTCC 1538 at 200 ug/ml after 18 hr by cup-plate method; details: MTCC 1538, 18 h, read-out: DIZ
Staphylococcus aureus [30] = test: Antibacterial activity against Staphylococcus aureus MTCC 1430 at 100 ug/ml after 18 hr by cup-plate method; details: MTCC 1430, 18 h, read-out: DIZ
Pseudomonas aeruginosa [31] = test: Antibacterial activity against Pseudomonas aeruginosa MTCC 424 at 1000 ug/ml after 18 hr by cup-plate method; details: MTCC 424, 18 h, read-out: DIZ
Staphylococcus aureus [32] = test: Antibacterial activity against Staphylococcus aureus MTCC 1430 after 24 hr by broth dilution method; details: MTCC 1430, 24 h
Aspergillus niger [33] = test: Antifungal activity against Aspergillus niger MTCC 2546 at 1000 ug/ml after 18 hr by cup-plate method; details: MTCC 2546, 18 h, read-out: DIZ
Micrococcus luteus [34] = test: Antibacterial activity against Micrococcus luteus MTCC 1538 at 1000 ug/ml after 18 hr by cup-plate method; details: MTCC 1538, 18 h, read-out: DIZ
Pseudomonas fluorescens [35] = test: Antibacterial activity against Pseudomonas fluorescens MTCC 2421 after 24 hr by broth dilution method; details: MTCC 2421, 24 h
Penicillium chrysogenum [36] = test: Antifungal activity against Penicillium chrysogenum MTCC 161 after 24 hr by broth dilution method; details: MTCC 161, 24 h
Staphylococcus aureus [37] = test: Antibacterial activity against Staphylococcus aureus MTCC 1430 at 500 ug/ml after 18 hr by cup-plate method; details: MTCC 1430, 18 h, read-out: DIZ
Pseudomonas fluorescens [38] = test: Antibacterial activity against Pseudomonas fluorescens MTCC 2421 at 500 ug/ml after 18 hr by cup-plate method; details: MTCC 2421, 18 h, read-out: DIZ

SMILES: Clc1ccc(/N=C\c2cccc3ccccc23)cc1
- zone of inhibition at 500 µg/mL (Penicillium chrysogenum [1]): 11 mm
- zone of inhibition at 1000 µg/mL (Penicillium chrysogenum [2]): 13 mm
- zone of inhibition at 1500 µg/mL (Bacillus pumilus [3]): 10 mm
- zone of inhibition at 1000 µg/mL (Bacillus pumilus [4]): 9 mm
- MIC (Bacillus subtilis [5]): 500 µg/mL (≈ 1880 µM)
- zone of inhibition at 1500 µg/mL (Escherichia coli [6]): 17 mm
- zone of inhibition at 200 µg/mL (Pseudomonas fluorescens [7]): 12 mm
- zone of inhibition at 1500 µg/mL (Micrococcus luteus [8]): 25 mm
- MIC (Escherichia coli [9]): 500 µg/mL (≈ 1880 µM)
- zone of inhibition at 100 µg/mL (Pseudomonas fluorescens [10]): 11 mm
- zone of inhibition at 500 µg/mL (Aspergillus niger [11]): 11 mm
- zone of inhibition at 100 µg/mL (Micrococcus luteus [12]): 13 mm
- zone of inhibition at 1000 µg/mL (Pseudomonas fluorescens [13]): 17 mm
- MIC (Pseudomonas aeruginosa [14]): 500 µg/mL (≈ 1880 µM)
- MIC (Micrococcus luteus [15]): 300 µg/mL (≈ 1130 µM)
- zone of inhibition at 1500 µg/mL (Bacillus subtilis [16]): 17 mm
- zone of inhibition at 1000 µg/mL (Escherichia coli [17]): 11 mm
- zone of inhibition at 500 µg/mL (Micrococcus luteus [18]): 19 mm
- zone of inhibition at 1500 µg/mL (Penicillium chrysogenum [19]): 14 mm
- zone of inhibition at 1500 µg/mL (Aspergillus niger [20]): 15 mm
- zone of inhibition at 1500 µg/mL (Pseudomonas aeruginosa [21]): 14 mm
- MIC (Bacillus pumilus [22]): 500 µg/mL (≈ 1880 µM)
- zone of inhibition at 1500 µg/mL (Staphylococcus aureus [23]): 21 mm
- zone of inhibition at 200 µg/mL (Staphylococcus aureus [24]): 13 mm
- MIC (Aspergillus niger [25]): 500 µg/mL (≈ 1880 µM)
- zone of inhibition at 1000 µg/mL (Staphylococcus aureus [26]): 18 mm
- zone of inhibition at 1000 µg/mL (Bacillus subtilis [27]): 15 mm
- zone of inhibition at 1500 µg/mL (Pseudomonas fluorescens [28]): 19 mm
- zone of inhibition at 200 µg/mL (Micrococcus luteus [29]): 16 mm
- zone of inhibition at 100 µg/mL (Staphylococcus aureus [30]): 11 mm
- zone of inhibition at 1000 µg/mL (Pseudomonas aeruginosa [31]): 13 mm
- MIC (Staphylococcus aureus [32]): 400 µg/mL (≈ 1510 µM)
- zone of inhibition at 1000 µg/mL (Aspergillus niger [33]): 13 mm
- zone of inhibition at 1000 µg/mL (Micrococcus luteus [34]): 21 mm
- MIC (Pseudomonas fluorescens [35]): 300 µg/mL (≈ 1130 µM)
- MIC (Penicillium chrysogenum [36]): 500 µg/mL (≈ 1880 µM)
- zone of inhibition at 500 µg/mL (Staphylococcus aureus [37]): 15 mm
- zone of inhibition at 500 µg/mL (Pseudomonas fluorescens [38]): 14 mm
